In PMC11134387, “Cancer-Stem-Cell Phenotype-Guided Discovery of a Microbiota-Inspired Synthetic Compound Targeting NPM1 for Leukemia” (JACS Au, 2024):

What was measured:
Format in all cases: cell-based
[1] = test system: primary HSCs from patients with NPM1 C+ AML; experiment: CD34+ liquid HSC short-term culture, NPM1 C+ AML patients; settings: Homo sapiens, n = 4
Experimental: (§1) Considering the inhibitory capacity of UCM-13369 on AML cell lines (shown in Figure 3A), the therapeutic potential was assessed in primary CD34+ cells from AML patients. Two ex vivo models were used from AML patients and healthy donors: CD34+ liquid HSC (hematopoietic stem cell) culture as a short-term model and CFU-E (colony-forming unit–erythroid) as a midterm model.
(§2) The test compound was diluted in PBS. […]
(§3) quantitative real-time PCR (qPCR), or were sorted using a FACS BD INFL UX cell sorter (BD Biosciences, Franklin Lakes, NJ, USA). All cells were maintained at 37 °C in a humidified incubator in an atmosphere of 5% CO2, and passaged every 2–3 days. […]
(§4) Primary cells. […] After 72 h in maintenance cells were ready to start the assays. […]
(§5) Colonospheres, mamospheres and colony formation unit assays. […] After 10 days (mamospheres and colonospheres) and 14 days (CFU-E) we quantified t he number of colonies/spheres and number of cell s (CFU-E) by […]
(§6) RNA and DNA extraction and quantitative PCR (qPCR). […] Gene expression was studied from the extracted RNA, processed into cDNA to quantify the expression of NPM1 and c-MYC. […]
(§7) The relative amount of targets was determined by the comparative Ct method.
(§8) Western blot. […] Lysates wer e cl ear ed by centrifugation (14,000g, 4 °C, 30 min), protein concentration determined by Bradford

[2] = test system: c-Myc; experiment: qPCR and Western blot of c-Myc in OCI-AML3 cells
Text: (§9) We next studied the impact of UCM-13369 in the genes and/or expression levels of NPM1 and NPM1 C+ pathway components (Figure 4A), including the positive regulation of c-Myc[34] and the negative regulation of FBXW7 and the pro-apoptotic CASP8.[35] […] The inhibition of NPM1 was also observed in MOLM13 cells expressing WT NPM1 (Figure S1B). […]
as §3, §4, §5, §6, §7
Western blot. […] Lysates wer e cl ear ed by centrifugation (14,000g, 4 °C, 30 min), protein concentration determined by Bradford […]
Proteomic analysis. […] Follows the image of a Venn diagram showing the number of proteins detected in each of the pop ulations and the proteins that converg e […]

[3] = test system: primary CD34+ cells from AML patients; experiment: CFU-E colony-forming unit assay, AML patients; settings: Homo sapiens
Experimental: as §1, §2
Primary cells. 1x10^6/mL total mononuclear bone marrow cells (as source of CD34+ HSCs) of healthy donors and AML patients were used. They were cultured using Stem SpanTM supplement with pencillin/streptomycin (500 U/ml), TPO (10 µg/mL), SCF (10 µg/mL), FLT3 (10 µg/mL), IL-6 (10 µg/mL) and IL-3 (10 µg/mL). After 24 h fresh medium was added. After 72 h in maintenance cells were ready to start the assays. All cells wer e maintained at 37 °C in a humidified incubator in an atmosphere of 5% CO2.
Colonospheres, mamospheres and colony formation unit assays. 30.000 cells per well of MCF-7 cells (mamos pheres), HCT-116 cells (colonospheres) and CD34+ cells from patients (colony formation units) were seeded in serum free non- adherent medium or […]
MethoCult (Stem Cell). […]

[4] = test system: NPM1; experiment: qPCR of NPM1 expression in OCI-AML3 cells; settings: OCI-AML3, 10 μM
Text: as §9
quantitative real-time PCR (qPCR), or were sorted using a FACS BD INFL UX cell sorter (BD Biosciences, Franklin Lakes, NJ, USA). All cells were maintained at 37 °C in a humidified incubator in an atmosphere of 5% CO2, and passaged every 2–3 days.
Additionally, they were cultured using RPMI media (Gibco/Life Technologies; Grand Island, NY, USA) supplemented with 10% fetal bovine serum (FBS) (Hyclone) and […]
as §4, §5, §6, §7, §8

[5] = test system: FBXW7; experiment: Western blot of FBXW7 in OCI-AML3 cells
Experimental: We next studied the impact of UCM-13369 in the genes and/or expression levels of NPM1 and NPM1 C+ pathway components (Figure 4A), including the positive regulation of c-Myc[34] and the negative regulation of FBXW7 and the pro-apoptotic CASP8.[35] […] The inhibition of NPM1 was also observed in MOLM13 cells expressing WT NPM1 (Figure S1B).
Assay (Bio-Rad Labo rato ries, Hercules, CA, USA) and 20 µg of total protein s was loaded onto 10% SDS-PAGE gels followed by transfer onto a nitrocellulose membrane. Blots were incubated with primary antibodies α-NPM1 (Abcam ), α-M YC (Cel l Signaling), α-FBXW7 ( Abcam) and an ti-mouse or anti-rabbit secondary antibodies (BD). An antibody to β-actin was used to check for equivalent protei n loading. Membranes were developed by enhanced chemiluminescenc e (Clarity Weste rn ECL substrate; Bio-Rad Laboratories ). […]
Proteomic analysis. A supplementary table (Excel file) includes all the data of the proteomic analysis, showing all the proteins identified, not only those ablated in the treated population, but also those found with different expression levels in both populations under study, and even those that were not detected in the control population but were detected in the treated population. Follows the image of a Venn diagram showing the number of proteins detected in each of the pop ulations and the proteins that converg e […]

SMILES: COc1ccc(C2Cc3[nH]c4ccccc4c3C(CCNCC3CC3)C2N)cc1 (centres unmarked) [4b, 4-{2-[(Cyclopropylmethyl)amino]ethyl}-2-(4-methoxyphenyl)-2,3,4,9-tetrahydro-1H-carbazol-3-amine]
- IC50 [1]: 1720 nM
- c-Myc levels (in words) [2]: reduced levels
- IC50 [3]: 300 nM
- NPM1 expression, dot plot (in words) [4]: decreased NPM1 expression
- FBXW7 levels (in words) [5]: upregulated
